Marks after values point to notes of the source that are not given here.

Experiment [1] concerns BxPC-3 pancreatic cancer. Description: In vivo growth of BxPC-3 pancreatic cancer xenografts. The conditions noted are these: BxPC-3-RFP; 35 days after inoculation; Pter and/or CRC. Details: species or system human.
Experiment [2] relates to MDA-MB-231 cells isolated from tumor-bearing mice. As to the kind of experiment: Chemosensitization of cultured MDA-MB-231 cells isolated from xenografts. Conditions: 72 h-cultured, PL 0.1 μM, Chemo 0.25 μM PAC.PBP, Pter = in vivo pretreatment. In kind it is cell-based, human. On the procedure: FIGS. 18-25. Effect of piperlongumine and I-BET762, as GSH depleting and chemosensitizing agents, in in vitro growing human melanoma, pancreatic, breast, lung, liver, prostate, ovarian, and colorectal cancer cells. Cancer cells, isolated from Pter-treated tumor-bearing mice, were cultured as indicated under Methods. Chemotherapy (0.25 μM PAC.PBP in A2058 melanoma and MDA-MB-231 breast carcinoma cells; 0.125 μM PAC.PBP and 25 μM GTB in AsPC-1 pancreatic cancer cells; 1 μM VRB and 15 μM cisPt in A459 lung carcinoma cells; 0.15 μM DXR in HepG2 hepatocellular carcinoma cells; 15 nM DCT in PC-3 prostate carcinoma cells; 0.15 μM PAC.PBP and 25 μM CarboPt in SK-OV-3 ovarian carcinoma cells; 3 μM 5-FU, 1 μM FA and 0.6 μM IRI in HT-29 colorectal carcinoma cells) was added to the cultured flasks 24 h after seeding. […]
Human A2058, MeWo and MelJuso melanoma cells, and mouse AtT-20 pituitary corticotroph tumor cells were from the American Type Culture Collection (ATCC). […] Cell numbers were determined using a Coulter Counter (Coulter Electronic Inc., Miami, Fla.). […] Cellular viability was assessed as previously reported (Mena, S. et al. Clin Cancer Res 13, 2658-2666 (2007)), by measuring trypan blue exclusion and leakage of lactate dehydrogenase activity. […]
Background: In xenograft studies the graft and the host belong to different species.

Regarding `COc1cc(/C=C/c2ccc(O)cc2)cc(OC)c1` [Pter, trans-3,5-dimethoxy-4′-hydroxystilbene], the Tumor vol. in experiment [1] was 226 ± 63* mm^3. Further, the Viable cells in experiment [2] is listed as 966 ± 177 ×10^6.

Source of the values: patent US11179348B2, “Combination comprising pterostilbene for the treatment of cancer” (FUNDACIÓN UNIVERSIDAD CATÓLICA DE VALENCIA SAN VICENTE …, priority 2015, dated 2021).
